Experimental data as given in patent US11040987B2 (TenNor Therapeutics Limited, priority 2019, dated 2021).
In brackets after ≈: the same amount, converted by molar mass.

Key:
Type in all cases: cell-based
A.b TNP 41708 = assay: MIC against A. baumannii clinical isolates, alone and in combination with antibiotics; conditions: for MIC: Acinetobacter baumannii, TNP41708, read-out: MIC A.b TNP 41708
Description: (§1) Minimum inhibitory concentration (MIC) is determined by a broth microdilution method according to the recommendation of the Clinical and Laboratory Standards Institute (CLSI) with minor modification. […] Strains of an ESKAPE panel (E. faecium ATCC 700221, S. aureus ATCC 29213, K. pneumoniae ATCC 43816, A. baumannii ATCC 19606, P. aeruginosa ATCC 27853 and Escherichia coli ATCC 25922) were obtained originally from the American Type Culture Collection (ATCC) and used for MIC determinations of compounds. The bacteria inoculum in the test is […].

A.b TNP 41709 = assay: as above; conditions: for MIC: Acinetobacter baumannii, TNP41709, Compounds alone, read-out: MIC A.b TNP 41709
A.b TNP 41704 = assay: as above; conditions: for MIC: Acinetobacter baumannii, TNP41704, Compounds alone, read-out: MIC A.b TNP 41704
S. aureus ATCC 29213 = assay: MIC determination, broth microdilution, ESKAPE panel; conditions: Staphylococcus aureus, ATCC29213; iron-depleted cation-adjusted Mueller-Hinton broth, 2,2-dipyridyl 160 μM; 37° C., 18-20 hours; read-out: MIC S. aureus ATCC 29213
Description: as §1

[1] = system: Escherichia coli ATCC 25922; assay: as above; conditions: ATCC25922, iron-depleted cation-adjusted Mueller-Hinton broth, 2,2-dipyridyl 160 μM, 37° C., 18-20 hours, read-out: MIC E. coli ATCC 25922
Description: as §1

K. pneumoniae ATCC 43816 = assay: as above; conditions: Klebsiella pneumoniae, ATCC43816; iron-depleted cation-adjusted Mueller-Hinton broth, 2,2-dipyridyl 160 μM; 37° C., 18-20 hours; read-out: MIC K. pneumoniae ATCC 43816
Description: as §1

A. baumannii ATCC 19606 = assay: as above; conditions: Acinetobacter baumannii, ATCC19606; iron-depleted cation-adjusted Mueller-Hinton broth, 2,2-dipyridyl 160 μM; 37° C., 18-20 hours; read-out: MIC A. baumannii ATCC 19606
Description: as §1

E. faecium ATCC 700221 = assay: as above; conditions: Enterococcus faecium, ATCC700221; iron-depleted cation-adjusted Mueller-Hinton broth, 2,2-dipyridyl 160 μM; 37° C., 18-20 hours; read-out: MIC E. faecium ATCC 700221
Description: as §1

P. aeruginosa ATCC 27853 = assay: as above; conditions: Pseudomonas aeruginosa, ATCC27853; iron-depleted cation-adjusted Mueller-Hinton broth, 2,2-dipyridyl 160 μM; 37° C., 18-20 hours; read-out: MIC P. aeruginosa ATCC 27853
Description: as §1

Compound | MIC (A.b TNP 41708) [µg/mL] | MIC A.b TNP 41708 (A.b TNP 41708; Compounds + Imipenem (1:1)) [µg/mL] | MIC A.b TNP 41708 (A.b TNP 41708; Compounds + meropenem (1:1)) [µg/mL] | MIC A.b TNP 41708 (A.b TNP 41708; Compounds + sulbactam (1:1)) [µg/mL] | MIC (A.b TNP 41709) [µg/mL] | MIC A.b TNP 41709 (A.b TNP 41709; Compounds + Imipenem (1:1)) [µg/mL] | MIC A.b TNP 41709 (A.b TNP 41709; Compounds + meropenem (1:1)) [µg/mL] | MIC A.b TNP 41709 (A.b TNP 41709; Compounds + sulbactam (1:1)) [µg/mL] | MIC (A.b TNP 41704) [µg/mL] | MIC A.b TNP 41704 (A.b TNP 41704; Compounds + Imipenem (1:1)) [µg/mL] | MIC A.b TNP 41704 (A.b TNP 41704; Compounds + meropenem (1:1)) [µg/mL] | MIC A.b TNP 41704 (A.b TNP 41704; Compounds + sulbactam (1:1)) [µg/mL] | MIC (S. aureus ATCC 29213) [µg/mL] | MIC [1] [µg/mL] | MIC (K. pneumoniae ATCC 43816) [µg/mL] | MIC (A. baumannii ATCC 19606) [µg/mL] | MIC (E. faecium ATCC 700221) [µg/mL] | MIC (P. aeruginosa ATCC 27853) [µg/mL]
C[C@]1(/C=N/NC(=O)CCNC(=O)c2ccc(O)c(O)c2)[C@H](C(=O)O)N2C(=O)C[C@H]2S1(=O)=O [Example 67, (2S,3R,5R)-3-((E)-(2-(3-(3,4-dihydroxybenzamido)propanoyl)hydrazono)methyl)-3-methyl-7-oxo-4-thia-1-azabicyclo[3.2.0]heptane-2-carboxylic acid 4,4-dioxide] | > 128 | 4 | 2 | 8 | > 128 | 8 | 4 | 8 | > 128 | 4 | 4 | 1 | 128 (≈ 273 µM) | > 128 | 128 (≈ 273 µM) | 4 (≈ 8.54 µM) | > 128 | > 128
CN(NC(=O)c1ccc(O)c(O)c1)C(=O)OC[C@@]1(C)[C@H](C(=O)O)N2C(=O)C[C@H]2S1(=O)=O [Example 76, (2S,3R,5R)-3-(((2-(3,4-dihydroxybenzoyl)-1-methylhydrazinecarbonyl)oxy)methyl)-3-methyl-7-oxo-4-thia-1-azabicyclo[3.2.0]heptane-2-carboxylic acid 4,4-dioxide] | > 128 | – | 32 | 16 | > 128 | – | 16 | 8 | > 128 | – | 16 | 8 | > 128 | > 128 | > 128 | 1 (≈ 2.19 µM) | > 128 | > 128
CN(NC(=O)OC[C@@]1(C)[C@H](C(=O)O)N2C(=O)C[C@H]2S1(=O)=O)C(=O)c1ccc(O)c(O)c1Cl [Example 77] | > 128 | – | 32 | 32 | > 128 | – | 16 | 16 | > 128 | – | 16 | 8 | > 128 | 64 (≈ 130 µM) | 16 (≈ 32.5 µM) | 0.25 (≈ 0.508 µM) | > 128 | > 128
CN(NC(=O)c1ccc(O)c(O)c1Cl)C(=O)OC[C@@]1(C)[C@H](C(=O)O)N2C(=O)C[C@H]2S1(=O)=O [Example 80, (2S,3R,5R)-3-(((2-(2-chloro-3,4-dihydroxybenzoyl)-1-methylhydrazinecarbonyl)oxy)methyl)-3-methyl-7-oxo-4-thia-1-azabicyclo[3.2.0]heptane-2-carboxylic acid 4,4-dioxide] | > 128 | – | 64 | 32 | > 128 | – | 32 | 8 | > 128 | – | 16 | 4 | > 128 | 64 (≈ 130 µM) | 16 (≈ 32.5 µM) | 0.25 (≈ 0.508 µM) | > 128 | > 128
C[C@]1(c2cc(C(=O)c3ccc(O)c(O)c3)on2)[C@H](C(=O)O)N2C(=O)C[C@H]2S1(=O)=O [Example 112, (2S,3R,5R)-3-(5-(3,4-dihydroxybenzoyl)isoxazol-3-yl)-3-methyl-7-oxo-4-thia-1-azabicyclo[3.2.0]heptane-2-carboxylic acid 4,4-dioxide] | > 64 | – | 16 | 8 | > 64 | – | 8 | 2 | > 64 | – | 16 | 2 | > 64 | > 64 | > 64 | 32 (≈ 75.8 µM) | > 64 | > 64
C[C@]1(COC(=O)c2ccc(O)c(O)c2Cl)[C@H](C(=O)O)N2C(=O)C[C@H]2S1(=O)=O [Example 114, (2S,3R,5R)-3-(((2-chloro-3,4-dihydroxybenzoyl)oxy)methyl)-3-methyl-7-oxo-4-thia-1-azabicyclo[3.2.0]heptane-2-carboxylic acid 4,4-dioxide] | > 128 | – | 64 | 32 | > 128 | – | 64 | 16 | > 128 | – | 64 | 8 | 16 (≈ 38.1 µM) | 8 (≈ 19.1 µM) | 2 (≈ 4.76 µM) | < 0.06 | > 128 | > 128
C[C@]1(CNc2ccc(O)c(O)c2)[C@H](C(=O)O)N2C(=O)C[C@H]2S1(=O)=O [Example 117, (2S,3S,5R)-3-(((3,4-dihydroxyphenyl)amino)methyl)-3-methyl-7-oxo-4-thia-1-azabicyclo[3.2.0]heptane-2-carboxylic acid 4,4-dioxide] | 128 | – | 8 | 4 | 64 | – | 8 | 4 | 64 | – | 8 | 4 | > 128 | > 128 | > 128 | 4 (≈ 11.2 µM) | > 128 | > 128
C[C@]1(/C=N/OCCNC(=O)c2ccc(O)c(O)c2Cl)[C@H](C(=O)O)N2C(=O)C[C@H]2S1(=O)=O [Example 118, (2S,3R,5R)-3-((E)-((2-(2-chloro-3,4-dihydroxybenzamido)ethoxy)imino)methyl)-3-methyl-7-oxo-4-thia-1-azabicyclo[3.2.0]heptane-2-carboxylic acid 4,4-dioxide] | > 128 | – | >128 | >128 | > 128 | – | >128 | >128 | > 128 | – | 128 | 16 | > 128 | > 128 | > 128 | > 128 | > 128 | > 128
C[C@@H](O)[C@H]1C(=O)N2C(C(=O)O)=C(SCCN=CN)C[C@H]12 [Imipenem, reference compound] | 32 | – | – | – | 32 | – | – | – | 16 | – | – | – | < 0.06 | 0.25 (≈ 0.835 µM) | 0.5 (≈ 1.67 µM) | 0.25 (≈ 0.835 µM) | > 128 | 1 (≈ 3.34 µM)
C[C@@H](O)[C@H]1C(=O)N2C(C(=O)O)=C(S[C@@H]3CN[C@H](C(=O)N(C)C)C3)[C@H](C)[C@H]12 [Meropenem, reference compound] | 128 | – | – | – | 128 | – | – | – | 64 | – | – | – | 0.125 (≈ 0.326 µM) | < 0.06 | < 0.06 | 1 (≈ 2.61 µM) | > 128 | 0.5 (≈ 1.3 µM)
